Laboratory results from US20250230193A1, “CYCLIC COMPOUND HAVING SELECTIVE KRAS INHIBITORY EFFECT ON HRAS AND NRAS” (CHUGAI SEIYAKU KABUSHIKI KAISHA, priority 2022, published 2025).

How the values were obtained:
[1] = biological target: GDP-bound NRAS wild-type protein (Homo sapiens, UniProt P01111); assay: Binding to NRAS by surface plasmon resonance (SPR), Single Cycle Kinetics; details: SPR, GDP-bound NRAS wild-type vs GDP-bound KRAS wild-type
[2] = biological target: GDP-bound HRAS wild-type protein (Homo sapiens, UniProt P01112); assay: Binding to HRAS by surface plasmon resonance (SPR), Single Cycle Kinetics; details: SPR, GDP-bound HRAS wild-type vs GDP-bound KRAS wild-type
GDP-bound HRAS wild-type protein, sequence (P01112 whole entry): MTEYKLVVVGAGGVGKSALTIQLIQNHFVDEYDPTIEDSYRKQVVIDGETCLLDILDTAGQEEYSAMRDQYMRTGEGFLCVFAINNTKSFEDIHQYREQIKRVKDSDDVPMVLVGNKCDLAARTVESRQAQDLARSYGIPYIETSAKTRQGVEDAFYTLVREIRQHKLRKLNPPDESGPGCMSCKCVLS

GDP-bound NRAS wild-type protein, sequence (P01111 whole entry): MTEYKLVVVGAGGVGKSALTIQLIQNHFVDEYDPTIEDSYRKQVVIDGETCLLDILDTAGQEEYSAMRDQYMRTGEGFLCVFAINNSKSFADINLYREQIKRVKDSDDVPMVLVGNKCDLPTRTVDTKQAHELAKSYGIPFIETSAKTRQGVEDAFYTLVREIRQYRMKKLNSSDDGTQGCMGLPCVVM

Structure (SMILES)	NRAS/KRAS (ratio of KD value with respect to NRAS to KD value with respect to KRAS) [1]	HRAS/KRAS (ratio of KD value with respect to HRAS to KD value with respect to KRAS) [2]
CCOC[C@H]1C(=O)N[C@@H]([C@@H](C)CC)C(=O)N(C)CC(=O)N(C)[C@H]2C/C=C\CCN(C2=O)[C@@H](CC2CCCCC2)C(=O)N(C)CC(=O)N[C@@H](CCc2ccc(C(F)(F)F)c(Cl)c2)C(=O)N2C[C@H](OCC)C[C@H]2C(=O)NC2(CC(C)(C)C2)C(=O)N(C)[C@@H](C(CC)CC)C(=O)N(C)[C@H](C(=O)N(C)C)CC(=O)N1C [PP2488]	A (a compound having 10 or more and less than 20 is denoted as A)	A (a compound having 10 or more and less than 20 is denoted as A)
CCC[C@H]1C(=O)N[C@@H]([C@@H](C)CC)C(=O)N(C)CC(=O)N(C)[C@H]2C/C=C\CCN(C2=O)[C@@H](CC2CCC(F)(F)CC2)C(=O)N(C)CC(=O)N[C@@H](CCc2cc(F)c(C(F)(F)F)c(F)c2)C(=O)N2C[C@H](OCC)C[C@H]2C(=O)NC2(CC(C)(C)C2)C(=O)N(C)[C@@H](C(CC)CC)C(=O)N(C)[C@H](C(=O)N(C)C)CC(=O)N1C [PP2489]	A (a compound having 10 or more and less than 20 is denoted as A)	A (a compound having 10 or more and less than 20 is denoted as A)
CCCOC[C@H]1C(=O)N[C@@H]([C@@H](C)CC)C(=O)N(C)CC(=O)N(C)[C@H]2C/C=C\CCN(C2=O)[C@@H](CC2CCC(F)(F)CC2)C(=O)N(C)CC(=O)N[C@@H](CCc2cc(F)c(C(F)(F)F)c(F)c2)C(=O)N2C[C@@H](C)C[C@H]2C(=O)NC2(CC(C)(C)C2)C(=O)N(C)[C@@H](C(CC)CC)C(=O)N(C)[C@H](C(=O)N(C)C)CC(=O)N1C [PP2490]	AA (a compound having 20 or more is denoted as AA)	A (a compound having 10 or more and less than 20 is denoted as A)
CCO[C@@H]1C[C@H]2C(=O)NC3(CC(C)(C)C3)C(=O)N(C)[C@@H](C(CC)CC)C(=O)N(C)[C@H](C(=O)N(C)C)CC(=O)N(C)[C@@H](C(C)C)C(=O)N[C@@H]([C@@H](C)CC)C(=O)N(C)CC(=O)N(C)[C@H]3C/C=C\CCN(C3=O)[C@@H](CC3CCC(F)(F)CC3)C(=O)N(C)CC(=O)N[C@@H](CCc3ccc(C(F)(F)F)c(Cl)c3)C(=O)N2C1 [PP2492]	AA (a compound having 20 or more is denoted as AA)	A (a compound having 10 or more and less than 20 is denoted as A)
CCC(CC)[C@H]1C(=O)N(C)[C@H](C(=O)N(C)C)CC(=O)N(C)[C@@H](CC2CC2)C(=O)N[C@@H]([C@@H](C)CC)C(=O)N(C)CC(=O)N(C)[C@H]2C/C=C\CCN(C2=O)[C@@H](CC2CCC(F)(F)CC2)C(=O)N(C)CC(=O)N[C@@H](CCc2ccc(C(F)(F)F)c(OC)c2)C(=O)N2C[C@@H](C)C[C@H]2C(=O)NC2(CC(C)(C)C2)C(=O)N1C [PP2494]	A (a compound having 10 or more and less than 20 is denoted as A)	A (a compound having 10 or more and less than 20 is denoted as A)
CCO[C@@H]1C[C@H]2C(=O)NC3(CC(C)(C)C3)C(=O)N(C)[C@@H](C(CC)CC)C(=O)N(C)[C@H](C(=O)N(C)C)CC(=O)N(C)[C@@H](CC3CC3)C(=O)N[C@@H]([C@@H](C)CC)C(=O)N(C)CC(=O)N(C)[C@H]3C/C=C\CCN(C3=O)[C@@H](CC3CCC(F)(F)CC3)C(=O)N(C)CC(=O)N[C@@H](CCc3ccc(C(F)(F)F)c(Cl)c3)C(=O)N2C1 [PP2495]	A (a compound having 10 or more and less than 20 is denoted as A)	A (a compound having 10 or more and less than 20 is denoted as A)
CCC(CC)[C@H]1C(=O)N(C)[C@H](C(=O)N(C)C)CC(=O)N(C)[C@@H](C(C)C)C(=O)N[C@@H]([C@@H](C)CC)C(=O)N(C)CC(=O)N(C)[C@H]2C/C=C\CCN(C2=O)[C@@H](CC2CCC(F)(F)CC2)C(=O)N(C)CC(=O)N[C@@H](CCc2cc(F)c(C(F)(F)F)c(F)c2)C(=O)N2C[C@@H](C)C[C@H]2C(=O)NC2(CC(C)(C)C2)C(=O)N1C [PP2496]	A (a compound having 10 or more and less than 20 is denoted as A)	A (a compound having 10 or more and less than 20 is denoted as A)
CCC[C@H]1C(=O)N[C@@H]([C@@H](C)CC)C(=O)N(C)CC(=O)N(C)[C@H]2C/C=C\CCN(C2=O)[C@@H](CC2CCC(F)(F)CC2)C(=O)N(C)CC(=O)N[C@@H](CCc2ccc(C(F)(F)F)c(OC)c2)C(=O)N2C[C@@H](C)C[C@H]2C(=O)NC2(CC(C)(C)C2)C(=O)N(C)[C@@H](C(CC)CC)C(=O)N(C)[C@H](C(=O)N(C)C)CC(=O)N1C [PP2497]	A (a compound having 10 or more and less than 20 is denoted as A)	A (a compound having 10 or more and less than 20 is denoted as A)
CCC[C@H]1C(=O)N[C@@H]([C@@H](C)CC)C(=O)N(C)CC(=O)N(C)[C@H]2C/C=C\CCN(C2=O)[C@@H](CC2CCC(F)(F)CC2)C(=O)N(C)CC(=O)N[C@@H](CCc2ccc(C(F)(F)F)c(Cl)c2)C(=O)N2C[C@H](OCC)C[C@H]2C(=O)NC2(CC(C)(C)C2)C(=O)N(C)[C@@H](C(CC)CC)C(=O)N(C)[C@H](C(=O)N(C)C)CC(=O)N1C [PP2498]	A (a compound having 10 or more and less than 20 is denoted as A)	A (a compound having 10 or more and less than 20 is denoted as A)
CCC(CC)[C@H]1C(=O)N(C)[C@H](C(=O)N(C)C)CC(=O)N(C)[C@@H](CC2CC2)C(=O)N[C@@H]([C@@H](C)CC)C(=O)N(C)CC(=O)N(C)[C@H]2C/C=C\CCN(C2=O)[C@@H](CC2CCC(F)(F)CC2)C(=O)N(C)CC(=O)N[C@@H](CCc2cc(F)c(C(F)(F)F)c(F)c2)C(=O)N2C[C@@H](C)C[C@H]2C(=O)NC2(CC(C)(C)C2)C(=O)N1C [PP2500]	A (a compound having 10 or more and less than 20 is denoted as A)	A (a compound having 10 or more and less than 20 is denoted as A)
CCCOC[C@H]1C(=O)N[C@@H]([C@@H](C)CC)C(=O)N(C)CC(=O)N(C)[C@H]2C/C=C\CCN(C2=O)[C@@H](CC2CCCCC2)C(=O)N(C)CC(=O)N[C@@H](CCc2cc(F)c(C(F)(F)F)c(F)c2)C(=O)N2C[C@H](OCC)C[C@H]2C(=O)NC2(CC(C)(C)C2)C(=O)N(C)[C@@H](C(CC)CC)C(=O)N(C)[C@H](C(=O)N(C)C)CC(=O)N1C [PP2501]	AA (a compound having 20 or more is denoted as AA)	A (a compound having 10 or more and less than 20 is denoted as A)
CC[C@H](C)[C@@H]1NC(=O)[C@H](COC)N(C)C(=O)C[C@@H](C(=O)N(C)C)N(C)C(=O)[C@H](C2CCCC2)N(C)C(=O)C2(CC(C)(C)C2)NC(=O)[C@@H]2C[C@H](C)CN2C(=O)[C@H](CCc2ccc(C(F)(F)F)c(Cl)c2)NC(=O)CN(C)C(=O)[C@H](Cc2ccc(C)cc2)N2CC/C=C\C[C@@H](C2=O)N(C)C(=O)CN(C)C1=O [PP2502]	A (a compound having 10 or more and less than 20 is denoted as A)	A (a compound having 10 or more and less than 20 is denoted as A)
CCOC[C@H]1C(=O)N[C@@H]([C@@H](C)CC)C(=O)N(C)CC(=O)N(C)[C@H]2C/C=C\CCN(C2=O)[C@@H](Cc2ccc(C)cc2)C(=O)N(C)CC(=O)N[C@@H](CCc2ccc(C(F)(F)F)c(OC)c2)C(=O)N2C[C@@H](C)C[C@H]2C(=O)NC2(CC(C)(C)C2)C(=O)N(C)[C@@H](C2CCCC2)C(=O)N(C)[C@H](C(=O)N(C)C)CC(=O)N1C [PP2505]	A (a compound having 10 or more and less than 20 is denoted as A)	B (a compound having 3 or more and less than 10 is denoted as B)
CC[C@H](C)[C@@H]1NC(=O)[C@H](COC)N(C)C(=O)C[C@@H](C(=O)N(C)CC)N(C)C(=O)[C@H](C2CCCC2)N(C)C(=O)C2(CC(C)(C)C2)NC(=O)[C@@H]2C[C@H](C)CN2C(=O)[C@H](CCc2ccc(C(F)(F)F)c(Cl)c2)NC(=O)CN(C)C(=O)[C@H](Cc2ccc(C)cc2)N2CC/C=C\C[C@@H](C2=O)N(C)C(=O)CN(C)C1=O [PP2506]	A (a compound having 10 or more and less than 20 is denoted as A)	A (a compound having 10 or more and less than 20 is denoted as A)
CCO[C@@H]1C[C@H]2C(=O)NC3(CC(C)(C)C3)C(=O)N(C)[C@@H](C3CCCC3)C(=O)N(C)[C@H](C(=O)N(C)CC)CC(=O)N(C)[C@@H](COC)C(=O)N[C@@H]([C@@H](C)CC)C(=O)N(C)CC(=O)N(C)[C@H]3C/C=C\CCN(C3=O)[C@@H](Cc3ccc(C)cc3)C(=O)N(C)CC(=O)N[C@@H](CCc3ccc(C(F)(F)F)c(Cl)c3)C(=O)N2C1 [PP2507]	AA (a compound having 20 or more is denoted as AA)	A (a compound having 10 or more and less than 20 is denoted as A)
CCC[C@H]1C(=O)N[C@@H](CC(C)C)C(=O)N(C2CC2)CC(=O)N(C)[C@H]2C/C=C\CCN(C2=O)[C@@H](Cc2ccc(C)cc2)C(=O)N(C)CC(=O)N[C@@H](CCc2cc(F)c(C(F)(F)F)c(F)c2)C(=O)N2C[C@H](OCC)C[C@H]2C(=O)NC2(CC(C)(C)C2)C(=O)N(C)[C@@H](C2CCCC2)C(=O)N(C)[C@H](C(=O)N(C)C)CC(=O)N1C [PP2508]	A (a compound having 10 or more and less than 20 is denoted as A)	B (a compound having 3 or more and less than 10 is denoted as B)
